Legend:
[1] = SetuBlue cell viability (cell proliferation) assay, fluorometric, on hMYO-hERG cells; format: cell-based, human; conditions: human; hMYO-hERG cells, 48 hours treatment, fluorescence 530/590 nm, GraphPad Prism
Protocol: (§1) Ninety-six (96) well plate(s) were seeded with hMYO-hERG cells containing approximately 1×10^4 cells/well. The plates were first incubated for 24 hours at 37° C., 5% CO2, followed by incubation for 48 hours at 28° C., 5% CO2. The wells were then treated with compound(s) of interest for 48 hours at standard cell cultural conditions. A negative control medium without cells was included to determine background signal.
(§2) The cells were then assayed for toxicity using a SetuBlue™ Cell Proliferation Assay Kit (Fluorometric) (BioIntersect, Catalog #F6009-2500-A). This kit uses a Blue indicator dye, Resazurin, to measure the metabolic capacity of cells. Resazurin is a non-fluorescent, cell permeable and non-toxic compound. Viable cells efficiently reduce the Blue indicator dye to resorufin, which is highly fluorescent and an indicator of cell viability.
(§3) The SetuBlue cell proliferation assay was performed as follows. The old media was aspirated and replaced with fresh 100 μl medium containing 10% volume of SetuBlue reagent containing the Blue indicator dye. The plates were incubated using standard cultural conditions for 1-4 hrs. The plates were than shaken for 10-20 seconds before recording fluorescence at 530/590 nm in PerkinElmer EnSpire® multimode plate reader. The relative fluorescence unit (“RFU”) value of each control well was subtracted from all RFU value to yield corrected RFU values. The corrected RFU values at 530/590 nm (Y axis, Log10 scale) were plotted against concentration of test compound (X axis). The CC50 value were determined by locating the X-axis value corresponding to one-half the maximum (plateau) RFU value using GraphPad Prism software.

hMYO-hERG cells = assay: as above; format: cell-based, human
Protocol: as §1, §2, §3

hERG = hERG (Homo sapiens, UniProt Q12809); conditions: literature statement; cited from earlier work
Sequence of hERG (Q12809 whole entry): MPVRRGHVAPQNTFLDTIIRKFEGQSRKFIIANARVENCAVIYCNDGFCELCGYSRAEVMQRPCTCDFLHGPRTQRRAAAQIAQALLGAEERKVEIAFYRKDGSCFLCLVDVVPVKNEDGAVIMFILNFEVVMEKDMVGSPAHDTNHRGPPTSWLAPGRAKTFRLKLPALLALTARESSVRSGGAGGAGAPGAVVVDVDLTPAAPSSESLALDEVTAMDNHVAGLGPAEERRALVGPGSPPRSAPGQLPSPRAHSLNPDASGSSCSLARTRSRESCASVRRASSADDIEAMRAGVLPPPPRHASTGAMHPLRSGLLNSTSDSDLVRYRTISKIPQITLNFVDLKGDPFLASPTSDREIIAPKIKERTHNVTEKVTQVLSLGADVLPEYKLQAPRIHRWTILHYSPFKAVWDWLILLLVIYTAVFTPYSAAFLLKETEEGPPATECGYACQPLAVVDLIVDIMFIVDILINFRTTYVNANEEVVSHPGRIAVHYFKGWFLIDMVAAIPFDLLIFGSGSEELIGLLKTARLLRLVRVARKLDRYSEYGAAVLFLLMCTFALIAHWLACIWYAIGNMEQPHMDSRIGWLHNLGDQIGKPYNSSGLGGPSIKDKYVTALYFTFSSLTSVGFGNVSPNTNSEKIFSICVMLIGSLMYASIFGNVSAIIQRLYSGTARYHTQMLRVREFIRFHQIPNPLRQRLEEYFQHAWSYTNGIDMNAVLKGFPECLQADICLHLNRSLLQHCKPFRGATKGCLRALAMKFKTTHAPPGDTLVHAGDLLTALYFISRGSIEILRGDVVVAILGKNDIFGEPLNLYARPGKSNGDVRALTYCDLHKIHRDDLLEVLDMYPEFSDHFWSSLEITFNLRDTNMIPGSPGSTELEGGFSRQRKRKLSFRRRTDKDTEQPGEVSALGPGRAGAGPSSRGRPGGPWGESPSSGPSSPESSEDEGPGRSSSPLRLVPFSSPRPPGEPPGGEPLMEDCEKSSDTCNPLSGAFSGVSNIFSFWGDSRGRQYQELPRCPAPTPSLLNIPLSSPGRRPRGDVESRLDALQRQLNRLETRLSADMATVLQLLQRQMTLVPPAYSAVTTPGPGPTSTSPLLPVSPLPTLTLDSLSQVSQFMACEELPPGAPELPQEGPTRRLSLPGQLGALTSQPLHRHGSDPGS

COc1cccc2c1C(=O)c1c(O)c3c(c(O)c1C2=O)C[C@@](O)(C(=O)CO)C[C@@H]3O[C@H]1C[C@H](N)[C@H](O)[C@H](C)O1 [doxorubicin]
CC50 at 48 h [1]: 42.3 µM | concentrations at which cardiotoxic on the hMYO-hERG cell line (hMYO-hERG cells; hMYO-hERG cells, 48 hours treatment, FIG. 12A): above 50 μM | cardiotoxicity (known) (hERG): long-term cardiotoxicity | hERG inhibitory activity (known) (hERG): only slight effects on hERG

C=C[C@H]1C[N@@]2CC[C@H]1C[C@@H]2[C@@H](O)c1ccnc2ccc(OC)cc12 [quinidine]
cardiotoxicity on the hMYO-hERG cells (hMYO-hERG cells; at concentrations as high as 400 μM, compared to control vehicle at 400 μM): not significantly cardiotoxic

Source: patent publication US20230235290A1, “RECOMBINANT CARDIOMYOCYTES AND CARDIOMYOCYTE CELL LINES EXPRESSING HERG” (The Governors of the University of Alberta, priority 2016, published 2023)
